Reference: ChEMBL document CHEMBL3507680, “University of Dundee, Gates Library screen for HepG2 cell viability”

test: Human HepG2 cell viability assay in 384 well format; format: toxicity, cell-based; design: dose 125 nL, time 70.5 hour; cytotoxicity at 70.5 h: concentration not given beside the values; settings: HepG2 cells, read-out: Inhibition

| Structure (SMILES) | cytotoxicity at 70.5 h [%] |
| --- | --- |
| CC(C)c1cc(C(=O)N(c2ccc(F)cn2)C2CCOCC2)on1 | 1.54 |
| CN(C)CCCN1CC2(CCN(C(=O)C3(C)CCCCO3)CC2)OC1=O (stereo unspecified) | 17.7 |
| O=C(NCCn1ccnc1)N1CCCN(Cc2cccs2)CC1 | -9.01 |
| CN(Cc1ccccn1)C1CCCN(c2cccnn2)C1 (stereo unspecified) | 3.01 |
| CN(C)S(=O)(=O)NCc1cccnc1Oc1ccc(F)cc1F | -3.42 |
| CSCC1CCN(C(=O)Cn2ncc(N3CCCCC3)cc2=O)CC1 | -16.3 |
| CCc1ccc(C(=O)NCc2cccc(S(=O)(=O)NC)c2)o1 | -0.952 |
| Cc1csc(C2CCCCN2C(=O)CN(C)Cc2ccccc2)n1 (stereo unspecified) | -8.36 |
| CC(=O)c1cccc(-c2c[nH]c(C)n2)c1 | -7.11 |
| CN(C)CCN(C)c1cc(N2CCN(c3ccccn3)CC2)ncn1 | 13.5 |
| O=C(c1cnc(-c2ccco2)s1)N1CCCC1Cn1cccn1 (stereo unspecified) | 1.15 |
| Cc1ccc(-c2nc(CN3CCn4c(nnc4C4CC4)C3)no2)cc1 | 10.2 |
| CCc1nccn1CCC(=O)N1C[C@H]2CC[C@@H]1CN(C(=O)N(C)C)C2 | -3.14 |
| Cc1nn(C)c(N(C)C)c1CNCc1cccnc1N(C)C | 23.9 |
| CN(Cc1ccco1)C(=O)CN1C(=O)c2ccccc2C1=O | -2.38 |
| Cc1cnn(CCNCC(=O)NC(c2ccccc2)c2ccccc2)c1 | -16 |
| Cc1cc(C2CCN(S(=O)(=O)c3cn(C)cn3)CC2)ccn1 | -9.79 |
| Cc1cc(CN2CCN(C(=O)c3ccc(=O)n(C)c3)CC2)no1 | -5.04 |
| CO[C@H]1CCN(S(=O)(=O)c2cccnc2)[C@@H]2CN(CC3CC3)C[C@H]12 | -6.81 |
| CC(NC(=O)c1cc(=O)n(C)c(=O)n1C)c1ccccc1-n1cccn1 (stereo unspecified) | 4.9 |
| Cc1cc(C)c(C(=O)N(CCO)Cc2ccccc2F)c(=O)[nH]1 | -8.86 |
| O=C(C1CCCC1)N1CCC(c2ccnc(Nc3cnccn3)n2)C1 (stereo unspecified) | 15 |
| CCn1ncc2c1C(COCC1CC1)CN(C(=O)c1cccs1)C2 (stereo unspecified) | 6.27 |

| Structure (SMILES) | cytotoxicity at 70.5 h [%] |
| --- | --- |
| O=C(c1ccc(C2CCCO2)s1)N1Cc2ccccc2C1 (stereo unspecified) | 0.527 |
| CC1CCN(CCNC(=O)c2ccn(-c3ccc(F)cc3)n2)CC1 | -5.04 |
| Cc1ncoc1C(=O)N1C[C@H]2CCC[C@@]2(COCc2cccnc2)C1 | 3.21 |
| CN(Cc1ccccc1)CC1(O)CCCN(Cc2ccc(F)cc2)C1=O (stereo unspecified) | -3.64 |
| O=C1CCCN1Cc1ncn2c1CN(C(=O)NC1CCCCC1)CCC2 | 27.2 |
| Cc1ccc(S(=O)(=O)N2CC[C@@H](O)C2)c(F)c1 | -2.84 |
| Cc1cc(CN2CCCC2Cn2cccn2)no1 (stereo unspecified) | -10.2 |
| CCCN1CCCN(CCCOc2cccc(C#N)c2)CC1 | -1.9 |
| Cc1cncc(C(=O)N2CCCC3(CCCN3S(C)(=O)=O)C2)c1 (stereo unspecified) | -8.81 |
| CNC(=O)CN([C@H]1C[C@H]2CCOC[C@H]2C1)S(=O)(=O)c1ccccc1 | -5.55 |
| Nc1nc2c(c(N3CCCC3)n1)CCN(Cc1ccccn1)CC2 | 8.7 |
| CC(C)N1CCC(Cc2cncc(-c3ccccc3C(=O)O)n2)CC1 | -17.6 |
| COCCNC(=O)Nc1ccn(-c2cccc(C(F)(F)F)c2)n1 | 9.44 |
| COc1cccc(CC(=O)N2CC[C@H]3[C@@H]2CCC(=O)N3C)c1 | 4.41 |
| CCc1ncc(C(=O)NC(C)(C)CC)s1 | -1.24 |
| Cc1nc([C@@H]2C[C@@H]3CCN(C(=O)c4ccsc4)C[C@H]3O2)no1 | -4.84 |
| CC(C)NC(=O)N1CCCC2(CCCCN2)C1 (stereo unspecified) | -7.7 |
| c1ccc(COCC2CN(Cc3ccsc3)Cc3nccn3C2)nc1 (stereo unspecified) | -7.86 |
| CC(Oc1ccccc1)C(=O)N1CCCN(Cc2cscn2)CC1 (stereo unspecified) | 6.19 |
| COCC1CCN(C(=O)c2cccc(S(=O)(=O)NC3CCCC3)c2)C1 (stereo unspecified) | -6.74 |
| CC(C)OCCCNC(=O)NC(C)c1ccc(-n2cncn2)cc1 (stereo unspecified) | 0.395 |
| NC(=O)c1ccc(C(=O)N(Cc2ccc(O)cc2)CC2CC2)cc1 | 6.44 |
| COCCNC(=O)[C@@H]1CC[C@@H]2[C@@H](CCN2Cc2cnn(C)c2)O1 | -18.7 |

| Structure (SMILES) | cytotoxicity at 70.5 h [%] |
| --- | --- |
| O=C(c1cccnc1)N1CCC2(CC1)COCCN(c1ncccn1)C2 | -9.03 |
| CCC1CCCCN1C(=O)CCn1cnc2sccc2c1=O (stereo unspecified) | -11.1 |
| Cn1cccc1C(=O)NC[C@]12COC[C@H]1CN(Cc1nccs1)C2 | -15.1 |
| Cn1nc(CN2CCCCC2)c2c1CN(C(=O)c1cccc(Cl)c1)C2 | 40.4 |
| CC(C)C[C@H](NC(=O)Cn1ccc2c(Cl)cccc21)C(=O)O | -15.2 |
| Cc1cc(C)cc(CNC(C)c2c(C)nn(C)c2C)c1 (stereo unspecified) | -13.1 |
| OCCCN1CCCC1c1cccc(Br)c1 (stereo unspecified) | -4.27 |
| C[C@@H]1CN(Cc2cc(C3CCCCC3)no2)CC[C@@]1(O)C1CC1 | 6.92 |
| O=C1COC[C@H]([C@H](O)c2ccc(NC(=O)c3cccnc3)cc2)N1 | -5.64 |
| CC(=O)Nc1cccc(CN2CCCC2C(=O)Nc2nccs2)c1 (stereo unspecified) | 17.5 |
| CCn1ccnc1CNc1nccc(-c2c(C)nn(C)c2C)n1 | -15.1 |
| O=C(NCC1CC[C@@H]2[C@@H]1OCCN2Cc1cccs1)c1ccco1 (stereo partly specified) | -0.679 |
| Cc1cnc(N)c(C(=O)C2CCN(C(=O)C3CCC3)CC2)c1 | 11.3 |
| Cc1ccc(N2CCO[C@H]3CN(Cc4cnn(C)c4)C[C@H]32)nn1 | -19.2 |
| O=C(NCc1nc2cc(F)ccc2[nH]1)c1ccc[nH]1 | 17.9 |
| Cc1nc(COC[C@H]2CC[C@H]3[C@H](CCN3C(N)=O)O2)cs1 | -1.77 |
| CC(=O)N1CCCC1c1nnn2cc(NCc3cccnc3)ccc12 (stereo unspecified) | -18.3 |
| O=C(CCSc1ccccc1)NCC1CCN(Cc2ccsc2)CC1 | 4.4 |
| O=C(Cn1nc2ccccc2n1)N1CCCn2cncc2C1 | -8.74 |
| O=C(CCc1cc2n(n1)CCCN(Cc1ccccc1F)C2)NC1CC1 | 0.504 |
| N#Cc1ncn(CCC(=O)Nc2cccc(Cl)c2)n1 | -8.53 |
| CC(NC(=O)NCCc1ccc(Cl)s1)c1ccccn1 (stereo unspecified) | -2.15 |
| CN(Cc1nc(C2CC2)no1)C1CCS(=O)(=O)C1 (stereo unspecified) | -4.77 |

| Structure (SMILES) | cytotoxicity at 70.5 h [%] |
| --- | --- |
| COc1cccc(OC2CN(C(=O)C3CCCN(C(=O)N(C)C)C3)C2)c1 (stereo unspecified) | 26.8 |
| CN(C)CCOCc1cncc2c1CCN(C1CCOC1)C2 (stereo unspecified) | -4.13 |
| OC[C@H]1CCN(Cc2ccc3ccccc3n2)C[C@@H]1O | -4.84 |
| CC(Cc1cccs1)C(=O)NCc1cccc(N2CCCC2=O)c1 (stereo unspecified) | -8.97 |
| O=C(NCc1nncn1C1CC1)C1(c2cccc(F)c2)CCOCC1 | -9.71 |
| CN1CC[C@@H]2[C@@H]1CCN2Cc1ccc2c(c1)OCO2 | -9.96 |
| Cc1ncsc1C(=O)NCCCN1CCCCCC1=O | -7.13 |
| Cc1nc[nH]c1CN1CCN(C(=O)CN2CCCC2)[C@H]2CS(=O)(=O)C[C@H]21 | 3.25 |
| CS(=O)(=O)c1ccc(C(=O)N2CCCC(n3ccnc3)C2)cc1 (stereo unspecified) | -10.2 |
| Cc1cc(NC(=O)CN2CCc3nn(C)c(=O)cc3C2)on1 | 1.43 |
| COc1ccc(CN2CC(O)CN(C(=O)OCC(C)(C)C)CC2=O)cc1 (stereo unspecified) | -2.24 |
| CC(C)C(NC(=O)Nc1cnn(CC(N)=O)c1)c1ccc(Cl)cc1 (stereo unspecified) | -1.5 |
| CCc1noc(CN2CCCN(C(N)=O)CC2)n1 | -12 |
| CC(C)C(=O)N1CC[C@H]2N(C)CC[C@@]2(C(=O)N2CCCC2)CC1 | -7.87 |
| CC(C)(C)CN1CC[C@H](c2nnc(Cc3c[nH]c4ccccc34)o2)C1 | 15.2 |
| CCOC(C)C(=O)NCCNS(C)(=O)=O (stereo unspecified) | -6.01 |
| Cn1cc(-c2nc(CN3CCN(c4nccs4)CC3)cs2)cn1 | -5.83 |
| COc1ccc(N2CCCN(C(=O)Cc3csc(C)n3)CC2)cc1 | 0.0529 |
| COc1cc(C)nc(N2CCN(C(=O)c3cc(Cl)c[nH]3)CC2)n1 | -1.56 |
| Cc1cc(CCC(=O)N2CC[C@H](O)C2)ccc1Br | 1.1 |
| O=C(NCCc1ccccn1)C1(n2cnnn2)CCCCC1 | 14.5 |
| N#Cc1ccc(F)c(CN2CCCC2Cn2cncn2)c1 (stereo unspecified) | -5.36 |
| CC(O)CN1CCN(C(=O)c2cc3ccccc3c(=O)[nH]2)CC1 (stereo unspecified) | -1.26 |

| Structure (SMILES) | cytotoxicity at 70.5 h [%] |
| --- | --- |
| CC(=O)NCCCNC(=O)N1CCN(c2cc(F)ccc2F)CC1 | -6.3 |
| CCn1cc(C(=O)N(C)[C@@H]2CC[C@@H](N3CCCC3)[C@@H]2O)c(C)n1 | -5.26 |
| COC[C@]1(O)CCN(Cc2cnc(N(C)C)nc2)CC1(C)C | -18.8 |
| CC(=O)N1CCN(CCCSCc2ccccc2)CC1 | 6.76 |
| Cc1cc(C)c(CNC(=O)NCc2ccc3c(c2)OCCO3)c(=O)[nH]1 | 0.304 |
| CO[C@H]1CN(C(=O)OC(C)(C)C)CC1NCc1ccn(C)c1 (stereo partly specified) | -6.04 |
| C=C(C)COc1cccc(C(=O)N(CC)Cc2noc(C)n2)c1 | -3.04 |
| CCOC(C)C(=O)N1CCN(S(C)(=O)=O)CC1 (stereo unspecified) | -112 |
| O=C1CCCN1CCC1CCN(C2CCC3(CCNCC3)CC2)CC1 | -6.34 |
| CC(C)C(=O)N1CC2(CCN(CC(C)(C)C)CC2)C1 | 47.3 |
| CCC(C)C(=O)N(Cc1ccccn1)C1CC1 (stereo unspecified) | 25.9 |
| COCC(=O)NC[C@H]1C[C@@H]2CCN1C[C@@H]2CN1CCc2ccccc2C1 | -12.4 |
| CN(C)CC(=O)N1CCC2(CCN(Cc3ccccn3)C2=O)C1 (stereo unspecified) | -22.9 |
| CC1c2ncc(Cn3cccn3)n2CCN1c1ncccn1 (stereo unspecified) | -8.84 |
| Cc1ccc(F)cc1C(=O)N1C[C@@H](CN2CCOCC2)[C@@H](CO)C1 | -6.59 |
| Cc1cc(C(=O)N2C[C@@H]3CCCO[C@@H]3[C@H](N(C)C(C)C)C2)c(C)[nH]1 | -6.48 |
| COc1ccccc1CCN1CCCC(CN(C)Cc2ccc(C)o2)C1 (stereo unspecified) | -8.57 |
| COc1cc(OC)cc(C2(O)CCN(Cc3nc(C)c(C)o3)CC2)c1 | 0.268 |
| CS(=O)(=O)N1CCCc2sc(C(=O)NC3CC3)nc21 | -3.24 |
